From patent US20180235909A1, “Use of 1-phenyl-3-dimethylaminopropane Compounds for Treating Rheumatoid Pain” (Gruenenthal GmbH, priority 2009, published 2018)

Tested on: CFA-induced chronic arthritic pain
Assay: CFA-induced chronic knee joint arthritic pain in rats, weight bearing (incapacitance tester)
Conditions: for Analgesic efficacy (mean percentage of maximal possible effect, weight bearing): highest possible dose without readout confounding side effects, five days post intraarticular CFA, n=10; for Side effects at higher doses: doses higher than the highest analyzed dose

CN1CC[C@]23c4c5ccc(O)c4O[C@H]2[C@@H](O)C=C[C@H]3[C@H]1C5 [Morphine]
Analgesic efficacy (mean percentage of maximal possible effect, weight bearing) (2.15 mg/kg iv): 59.6% @ 2.15 mg/kg | Analgesic efficacy (mean percentage of maximal possible effect, weight bearing) (2.15 mg/kg iv, listed as morphine): 59.6% | Side effects at higher doses (rats): readout (weight bearing) confounding side effects

COc1ccc2c3c1O[C@H]1C(=O)CC[C@@]4(O)[C@@H](C2)N(C)CC[C@]314 [Oxycodone]
Analgesic efficacy (mean percentage of maximal possible effect, weight bearing) (0.464 mg/kg i.v.): 46.1% @ 0.464 mg/kg | Analgesic efficacy (mean percentage of maximal possible effect, weight bearing) (0.464 mg/kg i.v., listed as oxycodone): 46.1% | Side effects at higher doses (rats): readout (weight bearing) confounding side effects

CC[C@@H](c1cccc(O)c1)[C@@H](C)CN(C)C [Tapentadol, (−)-(1R,2R)-3-(3-dimethylamino-1-ethyl-2-methyl-propyl)¬phenol]
Side effects at higher doses (rats): readout (weight bearing) confounding side effects | Effect on CFA-induced decrease in weight bearing (i.v. administration, rats, dose dependence): significantly reduced the CFA-induced decrease in weight bearing in a dose dependent manner

CC(C)Cc1ccc(C(C)C(=O)O)cc1 (centres unmarked) [Ibuprofen]
Analgesic efficacy (mean percentage of maximal possible effect, weight bearing) (147 mg/kg ip): 54.7% @ 147 mg/kg | Analgesic efficacy (mean percentage of maximal possible effect, weight bearing) (147 mg/kg ip, listed as ibuprofen): 54.7% | Side effects at higher doses (rats): readout (weight bearing) confounding side effects
